In patent US20230194511A1, “Compound Fixing Method, Detection Method, Screening Method, Substrate Used in Same, Compound Fixing Agent, and Fixing Kit” (priority 2020, published 2023):

Legend:
[1] = system: anti-penicillin [P2B9] antibodies; test: Compound microarray, detection of immobilized compound with anti-penicillin [P2B9] antibodies; assay type: binding, mouse; details: compound mixed with HSA, printed on glass slide
Text: (§1) Fourteen compounds (amoxicillin, ampicillin, apramycin, bacitracin, cefalexin, ceftazidime, cloxacillin, gentamicin, hygromycin B, neomycin, penicillin G, streptomycin, sulfadimidine, and tetracycline) were each mixed with human serum albumin (HSA) (Sigma-Aldrich) and printed on glass slides. Further, compounds of bovine serum albumin (BSA) covalently bonded to these 14 compounds in advance (Imgen BioSciences) were printed on glass slides as control samples for comparison. The compounds mixed with HSA were each dissolved in solution A for protein microarrays only (Fukushima Protein Factory) to a concentration of 0.5 mM. Furthermore, HSA was prepared and mixed with the solutions A including the compounds, bringing the final concentrations to 0.1 micrograms/microliter. It should be noted that the printing of each compound on a glass slide was performed by spotting microdroplets of approximately 2 to 4 nl on the glass slide by using an ultratrace dispensing system (Micro Diagnostic).
(§2) The compound microarrays printed with the compounds were immersed in ethanol and shaken for 30 seconds at room temperature. Subsequently, the compound microarrays were immersed in ultrapure water and shaken for 30 seconds at 26° C. […]
(§3) The compound microarrays were dried, centrifuged at 1500 rpm for one minute, and scanned for fluorescence intensity using a GenePix 4000B (Molecular Devices, Calif., USA). […]

[2] = system: anti-ampicillin antibodies; test: Compound microarray, detection of immobilized compound with anti-ampicillin antibodies; assay type: binding, mouse; details: compound 0.5 mM mixed with HSA 0.1 micrograms/microliter, printed on glass slide
Text: as §1, §2, §3

[3] = system: anti-prostaglandin E2 antibody; test: Prostaglandin-HSA compound microarray, detection with anti-prostaglandin E2 antibody (Example 5); assay type: binding; details: prostaglandin mixed with HSA 0.1 milligram/milliliter, printed on glass slide
Description: The immobilization of prostaglandins, which are bioactive lipids, was verified. In this example, as the prostaglandins, prostaglandins A1, A2, A3, B1, B2, B3, D1, D2, D3, E1, E2, E3, F1a, F2a, F3a, G2, H1, H2, I2, I3, J2, K1, and K2 were used. The prostaglandins were mixed with HSA in the solvents and at the final concentrations shown in the table below to form prostaglandin and HSA complexes. It should be noted that HSA was added to achieve a final concentration of 0.1 milligram/milliliter.
Solutions including each prepared prostaglandin and HSA were spotted and printed on glass slides as microdroplets of approximately 2 to 4 nl by using an ultratrace dispensing system (Micro Diagnostic).
The compound microarrays printed with the prostaglandins were immersed in ethanol and shaken for 30 seconds at room temperature. Subsequently, the compound microarrays were immersed in ultrapure water and shaken for 30 seconds at 26° C. The shaking by ultrapure water was performed twice. For solution replacement, the compound microarrays were immersed in solution A for protein microarrays only (Fukushima Protein Factory, Fukushima, Japan) and shaken for about five minutes at 26° C.
(§4) The compound microarrays treated as described above were immersed in Blocking One (Nacalai Tesque, Kyoto, Japan) and shaken for one hour at 26° C. Subsequently, the compound microarrays were immersed in solution A for protein microarrays only and shaken for about five minutes at 26° C.
Using a solution obtained by adding 1/4000 volume of Goat Reference Antibody Mixture I (Fukushima Protein Factory) to the primary antibody diluent for protein microarrays only (Fukushima Protein Factory), an anti-prostaglandin E2 antibody (Ab00484-23.0, Absolute Antibody) was diluted to 1 microgram/milliliter.
(§5) Two milliliters of the solution with the diluted primary antibody were added to a P-DE1 cassette for protein microarrays (Fukushima Protein Factory). […]

[4] = system: streptomycin/dihydrostreptomycin [CH-2013]; test: Compound microarray, detection of immobilized compound with streptomycin/dihydrostreptomycin antibody [CH-2013]; assay type: binding, mouse; details: compound mixed with HSA, printed on glass slide
Text: as §1, §2, §3

[5] = system: anti-dihydrosterptomycin [1.BB.891]; test: Compound microarray, detection of immobilized compound with anti-dihydrostreptomycin antibody [1.BB.891]; assay type: binding, mouse; details: compound mixed with HSA, printed on glass slide
Text: as §1, §2, §3

[6] = system: anti-streptomycin antibodies; test: Compound microarray, detection of immobilized compound with anti-streptomycin antibodies; assay type: binding, mouse; details: compound mixed with HSA, printed on glass slide
Text: as §1, §2, §3

[7] = system: anti-amoxicillin antibodies; test: Compound microarray, detection of immobilized compound with anti-amoxicillin antibodies; assay type: binding, mouse; details: concentrations of HSA from 0.5 mM to 0.0005 mM, glass slide
Description: as §1, with “Further,” for “Fourteen compounds (amoxicillin, ampicillin, apramycin, bacitracin, cefalexin, ceftazidime, cloxacillin, gentamicin, hygromycin B, neomycin, penicillin G, streptomycin, sulfadimidine, and tetracycline) were each mixed with human serum albumin (HSA) (Sigma-Aldrich) and printed on glass slides. Further,”
(§6) The compound microarrays printed with the compounds were immersed in ethanol and shaken for 30 seconds at room temperature. Subsequently, the compound microarrays were immersed in ultrapure water and shaken for 30 seconds at 26° C. It should be noted that the shaking by ultrapure water was performed twice. For solution replacement, the compound microarrays were immersed in solution A for protein microarrays only (Fukushima Protein Factory, Fukushima, Japan) and shaken for about five minutes at 26° C.
as §4
Using a solution obtained by adding 1/4000 volume of Goat Reference Antibody Mixture I (Fukushima Protein Factory) to the primary antibody diluent for protein microarrays only (Fukushima Protein Factory), one of eight mouse monoclonal anti-compound antibodies (Table 2) was diluted to 1 microgram/milliliter.
as §5

[8] = system: anti-penicillin antibodies; test: Compound microarray, detection with anti-penicillin antibodies (Examples 3 and 4, clone not stated); assay type: binding; details: concentrations of HSA from 0.5 mM to 0.0005 mM, glass slide
[9] = system: anti-gentamycin antibodies; test: Compound microarray, detection of immobilized compound with anti-gentamycin antibodies; assay type: binding, mouse
Description: as §1, with “Further,” for “Fourteen compounds (amoxicillin, ampicillin, apramycin, bacitracin, cefalexin, ceftazidime, cloxacillin, gentamicin, hygromycin B, neomycin, penicillin G, streptomycin, sulfadimidine, and tetracycline) were each mixed with human serum albumin (HSA) (Sigma-Aldrich) and printed on glass slides. Further,”
as §6
The compound microarrays treated as described above were immersed in Blocking One (Nacalai Tesque, Kyoto, Japan) and shaken for one hour at 26° C. […]

## CC1(C)S[C@@H]2[C@H](NC(=O)Cc3ccccc3)C(=O)N2[C@H]1C(=O)O [penicillin G]
[1]
  signal (Red Intensity): weak signal

## CC1(C)S[C@@H]2[C@H](NC(=O)[C@H](N)c3ccccc3)C(=O)N2[C@H]1C(=O)O [ampicillin]
[2]
  signal (Red Intensity): strong signal (strong signals (red intensity of 2000 or greater; the same below))

## CC/C=C\C[C@H](O)/C=C/[C@H]1[C@H](O)CC(=O)[C@@H]1C/C=C\CCCC(=O)O [Prostaglandin E3]
[3]
  reaction of the anti-prostaglandin E2 antibody (fluorescence intensity): reacted strongly

## CCCCC[C@H](O)/C=C/[C@H]1[C@H](O)CC(=O)[C@@H]1C/C=C\CCCC(=O)O [Prostaglandin E2]
[3]
  reaction of the anti-prostaglandin E2 antibody (fluorescence intensity): reacted strongly

## [H]/N=C(/N)N[C@H]1[C@H](O)[C@@H](O)[C@H](O[C@@H]2O[C@@H](C)[C@](O)(C=O)[C@H]2O[C@@H]2O[C@@H](CO)[C@H](O)[C@@H](O)[C@@H]2NC)[C@@H](N/C(N)=N\[H])[C@@H]1O [streptomycin]
[4]
  signal (Red Intensity): weak signal
[5]
  signal (Red Intensity): weak signal
[6]
  signal (Red Intensity): weak signal

## CC1(C)S[C@@H]2[C@H](NC(=O)[C@H](N)c3ccc(O)cc3)C(=O)N2[C@H]1C(=O)[O-].[Na+] [amoxicillin sodium]
[7]
  concentration of HSA at which the strongest signal was detected: 0.05 mM
  signal intensity versus HSA concentration: tended to be concentration-dependent

## CC1(C)S[C@@H]2[C@H](NC(=O)[C@H](N)c3ccc(O)cc3)C(=O)N2[C@H]1C(=O)O [amoxicillin]
[7]
  signal intensity versus HSA concentration: increased in an HSA concentration-dependence

## CC1(C)S[C@@H]2[C@H](NC(=O)Cc3ccccc3)C(=O)N2[C@H]1C(=O)[O-].[Na+] [penicillin G sodium]
[8]
  signal intensity versus HSA concentration: increased in an HSA concentration-dependence

## CCCCC[C@H](O)/C=C/[C@@H]1[C@H]2C/C(=C/CCCC(=O)O)O[C@H]2C[C@H]1O [Prostaglandin I2]
[3]
  reaction of the anti-prostaglandin E2 antibody (fluorescence intensity): reacted strongly

## gentamycin sulfate
[9]; compound 0.5 mM mixed with each immobilizing protein or HSA (0.1 micrograms/microliter), strong only with this antibody
  signal (red intensity): strong signal (strong signals (red intensity of 2000 or greater; the same below))
[9]; concentrations of HSA from 0.5 mM to 0.0005 mM, glass slide
  signal intensity versus HSA concentration: increased in an HSA concentration-dependence
